Type: physicochemical
Experimental: Finsolv® TN is a C12-15 alkyl benzoate from Fintex, Inc. (Elmwood Park, N.J.) Miglyol® 812 from Huls AG (Marl, Germany) and Neobee® 1053 from Stepan Company (Northfield, Ill.) are each a caprylic/capric triglyceride.
The general procedure to prepare the above formulations is as follows. A 500 mg of Compound 1 was weighed and transferred into an 800 ml glass beaker containing 500 g of one of the above carriers. The formulation was then stirred with a paddle mixer (stirrer type RZR50 from Caframo in Wiarton, Ontario, Canada) at 100 RPM setting until the compound was completely dissolved/dispersed in the carrier.
About 20 g each of the resulting formulations were then packed into 24 clear glass scintillation vials of 20 ml volume (Wheaton Disposable Scintillation Vials from Wheaton Scientific in Milleville, N.J.) and labeled. Groups of eight of such vials were then stored at 4° C., RT (22° C.) and/or 40° C. for stability studies.
The samples of the formulations at each of the above three temperatures were then periodically analyzed for the chemical stability of Compound 1. The compound was assayed using high performance liquid chromatographic (HPLC) system. The results of this analysis is set forth in Table 2 setting forth the amount of Compound 1 remaining in the formulation following a certain number of days at specified temperatures.

Compound: CCCCCc1cc2c(cc1C(=O)Oc1ccc(C(=O)O)cn1)C(C)(C)CCC2(C)C [Compound I]
- Stabilization of the compound in topical liquid or semisolid pharmaceutical formulations: None of these formulations, however, were capable of sufficiently stabilizing the compound

Reference: patent publication US6844364B2, “Stabilization of retinoid compounds” (Johnson & Johnson Consumer Companies, Inc., priority 2001, dated 2005)
